In ChEMBL document CHEMBL1201862, “PubChem BioAssay data set” (2004):
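Five concentrations, 48 hours, 96-well plates. Here, GI50 denotes the concentration required for 50% inhibition of growth.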 Active and inactive are the calls of the source. Cut-off read from the data, not from the text of the source: active = GI50 up to about 1.1 µM and inactive = higher.

How the values were obtained:
Assay in all cases: growth of human tumour cells (NCI), 48 h
CAKI-1 = test system: CAKI-1
COLO 205 = test system: COLO 205
HL-60 = test system: HL-60
HOP-62 = test system: HOP-62
MDA-MB-435 = test system: MDA-MB-435
NCI-H522 = test system: NCI-H522
OVCAR-3 = test system: OVCAR-3
OVCAR-4 = test system: OVCAR-4
OVCAR-5 = test system: OVCAR-5
OVCAR-8 = test system: OVCAR-8
SF-539 = test system: SF-539
SNB-19 = test system: SNB-19
SW-620 = test system: SW-620
T47D = test system: T47D
U-251 = test system: U-251
UACC-257 = test system: UACC-257
UO-31 = test system: UO-31
A498 = test system: A498
HOP-92 = test system: HOP-92
SR = test system: SR

SMILES	GI50 (CAKI-1)	GI50 (COLO 205)	GI50 (HL-60)	GI50 (HOP-62)	GI50 (MDA-MB-435)	GI50 (NCI-H522)	GI50 (OVCAR-3)	GI50 (OVCAR-4)	GI50 (OVCAR-5)	GI50 (OVCAR-8)	GI50 (SF-539)	GI50 (SNB-19)	GI50 (SW-620)	GI50 (T47D)	GI50 (U-251)	GI50 (UACC-257)	GI50 (UO-31)	GI50 (A498)	GI50 (HOP-92)	GI50 (SR)
C/C(=C/C(=O)Nn1c(Cc2ccccc2)n[nH]c1=O)C(=O)O	> 100 µM (inactive)	> 100 µM (inactive)	> 100 µM (inactive)	> 100 µM (inactive)	> 100 µM (inactive)	> 100 µM (inactive)	> 100 µM (inactive)	> 100 µM (inactive)	> 100 µM (inactive)	> 100 µM (inactive)	> 100 µM (inactive)	> 100 µM (inactive)	> 100 µM (inactive)	> 100 µM (inactive)	> 100 µM (inactive)	> 100 µM (inactive)	> 100 µM (inactive)	–	–	–
CC1=CC2CC(C)=C(CC[C@]3(C)CC[C@H]([C@@H](C)C(=O)O)OO3)C(C)(C)C2CC1 (some centres undefined)	1.17 µM (inactive)	0.403 µM (active)	0.0863 µM (active)	1.75 µM (inactive)	–	0.171 µM (active)	1.63 µM (inactive)	0.442 µM (active)	2.34 µM (inactive)	0.603 µM (active)	1.26 µM (inactive)	1.67 µM (inactive)	0.177 µM (active)	–	0.356 µM (active)	1.53 µM (inactive)	0.984 µM (active)	1.75 µM (inactive)	0.136 µM (active)	0.195 µM (active)
COc1ccccc1NC(=O)CC(=O)N1N=C(c2ccccc2)C(/N=N/c2ccc(Cl)cc2)C1=O (centres undefined)	19.5 µM (inactive)	71.4 µM (inactive)	52 µM (inactive)	23.4 µM (inactive)	–	32.1 µM (inactive)	28.4 µM (inactive)	25.2 µM (inactive)	> 100 µM (inactive)	41.8 µM (inactive)	36.8 µM (inactive)	36 µM (inactive)	45.6 µM (inactive)	–	30.9 µM (inactive)	65 µM (inactive)	18.2 µM (inactive)	15.2 µM (inactive)	–	55.1 µM (inactive)
CCOC(=N)CC(=O)NC(C)c1ccccc1 (centres undefined)	> 100 µM (inactive)	> 100 µM (inactive)	> 100 µM (inactive)	> 100 µM (inactive)	–	> 100 µM (inactive)	> 100 µM (inactive)	> 100 µM (inactive)	> 100 µM (inactive)	> 100 µM (inactive)	> 100 µM (inactive)	> 100 µM (inactive)	> 100 µM (inactive)	–	> 100 µM (inactive)	> 100 µM (inactive)	> 100 µM (inactive)	> 100 µM (inactive)	–	> 100 µM (inactive)
CCOC(=O)C(=[N+]=[N-])C(=O)C1(C(=O)OCC)CCN(C(=O)c2ccccc2)C1=O (centres undefined)	> 100 µM (inactive)	> 100 µM (inactive)	> 100 µM (inactive)	> 100 µM (inactive)	–	> 100 µM (inactive)	–	> 100 µM (inactive)	> 100 µM (inactive)	> 100 µM (inactive)	> 100 µM (inactive)	> 100 µM (inactive)	–	> 100 µM (inactive)	–	> 100 µM (inactive)	> 100 µM (inactive)	> 100 µM (inactive)	> 100 µM (inactive)	–
Cc1cccc(C)c1NC(=O)C1C(=O)N(c2c(C)cccc2C)C(=O)/C1=N\N (centres undefined)	> 100 µM (inactive)	> 100 µM (inactive)	1.68 µM (inactive)	> 100 µM (inactive)	–	> 100 µM (inactive)	> 100 µM (inactive)	> 100 µM (inactive)	> 100 µM (inactive)	> 100 µM (inactive)	> 100 µM (inactive)	> 100 µM (inactive)	> 100 µM (inactive)	–	> 100 µM (inactive)	> 100 µM (inactive)	> 100 µM (inactive)	> 100 µM (inactive)	> 100 µM (inactive)	> 100 µM (inactive)
NC(=O)C(c1ccccc1)N1CCOCC1 (centres undefined)	> 100 µM (inactive)	> 100 µM (inactive)	> 100 µM (inactive)	> 100 µM (inactive)	–	> 100 µM (inactive)	> 100 µM (inactive)	> 100 µM (inactive)	> 100 µM (inactive)	> 100 µM (inactive)	> 100 µM (inactive)	–	> 100 µM (inactive)	–	> 100 µM (inactive)	> 100 µM (inactive)	> 100 µM (inactive)	> 100 µM (inactive)	> 100 µM (inactive)	> 100 µM (inactive)
Nc1nc(-c2ccccc2)cc(-c2ccccc2O)n1	34.1 µM (inactive)	43.3 µM (inactive)	16.5 µM (inactive)	25.1 µM (inactive)	–	22.9 µM (inactive)	33.5 µM (inactive)	51.6 µM (inactive)	32.8 µM (inactive)	39.7 µM (inactive)	37.4 µM (inactive)	68.9 µM (inactive)	41.1 µM (inactive)	–	45.2 µM (inactive)	73.8 µM (inactive)	8.15 µM (inactive)	40.7 µM (inactive)	> 100 µM (inactive)	30.3 µM (inactive)
CC1=CC(=O)/C(=C/N2C(=O)CNC2=S)C(=O)O1	> 100 µM (inactive)	> 100 µM (inactive)	> 100 µM (inactive)	> 100 µM (inactive)	> 100 µM (inactive)	–	> 100 µM (inactive)	> 100 µM (inactive)	> 100 µM (inactive)	> 100 µM (inactive)	> 100 µM (inactive)	> 100 µM (inactive)	> 100 µM (inactive)	> 100 µM (inactive)	> 100 µM (inactive)	> 100 µM (inactive)	> 100 µM (inactive)	–	> 100 µM (inactive)	–
CC1=C(C(=O)Nc2ccccc2C)C(c2ccccc2)C(C(=O)Nc2ccccc2C)=C(C)N1	24.9 µM (inactive)	24.1 µM (inactive)	15.2 µM (inactive)	40.6 µM (inactive)	–	28.6 µM (inactive)	31.8 µM (inactive)	28.5 µM (inactive)	> 100 µM (inactive)	52 µM (inactive)	60.4 µM (inactive)	45.8 µM (inactive)	30.5 µM (inactive)	–	37.2 µM (inactive)	37.8 µM (inactive)	35.2 µM (inactive)	29.7 µM (inactive)	6.61 µM (inactive)	11.7 µM (inactive)
COc1cccc2nc3c(C(=O)NCCN(C)C)cccc3nc12	17.1 µM (inactive)	5.2 µM (inactive)	4.51 µM (inactive)	11.4 µM (inactive)	–	11.9 µM (inactive)	18.1 µM (inactive)	8.77 µM (inactive)	15.9 µM (inactive)	9.12 µM (inactive)	4.27 µM (inactive)	17.4 µM (inactive)	5.42 µM (inactive)	–	12.6 µM (inactive)	6.03 µM (inactive)	12.2 µM (inactive)	9.27 µM (inactive)	6.17 µM (inactive)	3.38 µM (inactive)
CC(C)(C)NCc1cc(C(C)(C)C)cc(-c2ccc(Cl)cc2)c1O	12.6 µM (inactive)	10.7 µM (inactive)	5.33 µM (inactive)	6.14 µM (inactive)	12.6 µM (inactive)	11 µM (inactive)	15.6 µM (inactive)	16.5 µM (inactive)	13.8 µM (inactive)	–	11.9 µM (inactive)	15.7 µM (inactive)	–	–	11.9 µM (inactive)	28.2 µM (inactive)	2.82 µM (inactive)	–	14.3 µM (inactive)	10.9 µM (inactive)
OCC1(CNc2cc(Cl)ncn2)CCC1	–	> 100 µM (inactive)	> 100 µM (inactive)	> 100 µM (inactive)	> 100 µM (inactive)	> 100 µM (inactive)	> 100 µM (inactive)	> 100 µM (inactive)	> 100 µM (inactive)	> 100 µM (inactive)	> 100 µM (inactive)	–	> 100 µM (inactive)	–	> 100 µM (inactive)	> 100 µM (inactive)	> 100 µM (inactive)	> 100 µM (inactive)	> 100 µM (inactive)	> 100 µM (inactive)
[N-]=[N+]=C1C(=O)C2CC3CC1CC2C3 (centres undefined)	> 100 µM (inactive)	> 100 µM (inactive)	> 100 µM (inactive)	> 100 µM (inactive)	–	> 100 µM (inactive)	> 100 µM (inactive)	> 100 µM (inactive)	> 100 µM (inactive)	> 100 µM (inactive)	> 100 µM (inactive)	> 100 µM (inactive)	81.1 µM (inactive)	–	> 100 µM (inactive)	> 100 µM (inactive)	> 100 µM (inactive)	> 100 µM (inactive)	> 100 µM (inactive)	> 100 µM (inactive)
CC1(C)N=C(c2ccccn2)C(c2ccccn2)=NC1(C)C	> 100 µM (inactive)	> 100 µM (inactive)	> 100 µM (inactive)	–	–	–	> 100 µM (inactive)	> 100 µM (inactive)	> 100 µM (inactive)	> 100 µM (inactive)	> 100 µM (inactive)	> 100 µM (inactive)	> 100 µM (inactive)	–	> 100 µM (inactive)	> 100 µM (inactive)	> 100 µM (inactive)	> 100 µM (inactive)	> 100 µM (inactive)	> 100 µM (inactive)
COc1cc2c(c(OC)c1OC)-c1ccc(SC)c(=O)cc1[C@@H](OC(C)=O)CC2	< 0.01 µM (active)	< 0.01 µM (active)	< 0.01 µM (active)	< 0.01 µM (active)	< 0.01 µM (active)	< 0.01 µM (active)	< 0.01 µM (active)	> 100 µM (inactive)	–	< 0.01 µM (active)	< 0.01 µM (active)	< 0.01 µM (active)	< 0.01 µM (active)	> 100 µM (inactive)	< 0.01 µM (active)	< 0.01 µM (active)	< 0.01 µM (active)	–	> 100 µM (inactive)	–
